# Source: patent US20250019644A1, “Quantitatively Mapping Amino Acid Properties (QMAP) Cell Culture Media” (UNIVERSITY OF IOWA RESEARCH FOUNDATION, priority 2023, published 2025)
# System: HCT116 cells
# Experiment: Metabolic profiling of tryptophan metabolite-treated cells, LC-MS
# Assay type: cell-based, human
# Procedure: […] Cell plates were lyophilized overnight before metabolite extraction. To extract metabolites, 1 ml of an extraction buffer composed of 2:2:1 methanol/acetonitrile/water with internal standards at 1 μg/ml each (D4-Citric Acid, 13C5-Glutamine, 13C5-Glutamic Acid, 13C6-Lysine, 13C5-Methionine, 13C3-Serine, D4-Succinic Acid, 13C11-Tryptophan, and D8-Valine; Cambridge Isotope Laboratories) was added to the lyophilized cell samples. Cells were scraped for 20 seconds and collected into Eppendorf tubes, flash-frozen in liquid nitrogen, and sonicated for 10 minutes.
# Samples were then placed on a rotating platform at −20° C. for 1 hour and centrifuged at 4° C. for 10 minutes at 21,000×g. 300 μL of the cleared metabolite extracts were transferred to fresh tubes for additional processing. An equal volume of each extract was pooled to serve as a quality control (QC) sample, which was analyzed at the beginning, end, and at a regular interval throughout an instrument run. Extraction buffer alone was analyzed as a processing blank sample. Metabolite extracts, the quality control sample, and the processing blank were evaporated to dryness using a speed-vacuum.
# Dried extracts were reconstituted in 30 μL of acetonitrile/water (1:1, V/V), vortexed for 10 minutes, and incubated at −20° C. for 18 hours. Samples were then centrifuged at 4° C. for 2 minutes at 21,000×g and the supernatant was transferred to autosampler vials for analysis.
# For LC chromatographic separation, 2 μL of reconstituted metabolite extracts, QC sample, and processing blank were run on a Millipore SeQuant ZIC-PHILIC (2.1×150 mm, 5 um particle size, Millipore Sigma #150460) column with a ZIC-PHILIC guard column (20×2.1 mm, Millipore Sigma #150437) attached to a Thermo Vanquish Flex UHPLC. The mobile phase comprised Buffer A [20 mM (NH4)2CO3, 0.1% NH4OH (v/v)] and Buffer B [acetonitrile]. The chromatographic gradient was run at a flow rate of 0.150 mL/min as follows: 0-20 min-linear gradient from 80 to 20% Buffer B; 20-20.5 min-linear gradient from 20 to 80% Buffer B; and 20.5-28 min-hold at 80% Buffer B. Data were acquired using a Thermo Q Exactive MS operated in full-scan, polarity-switching mode with a spray voltage set to 3.0 kV, the heated capillary held at 275° C., and the HESI probe held at 350° C. The sheath gas flow was set to 40 units, the auxiliary gas flow was set to 15 units, and the sweep gas flow was set to 1 unit. MS data acquisition was performed with polarity switching in a range of m/z 70-1,000, with the resolution set at 70,000, the AGC target at 10e6, and the maximum injection time at 200 ms. The QC sample was analyzed at the beginning and end of the LC-MS run and after every 10 samples.
# Acquired LC-MS and GC-MS data were processed using the Thermo Scientific TraceFinder software. Targeted metabolites were identified by matching accurate mass and retention times to the University of Iowa Metabolomics Core Facility's in-house library of confirmed standards. After peak area integration by TraceFinder, NOREVA software was applied for signal drift correction on a metabolite-to-metabolite basis using the pooled QC sample that had been analyzed throughout the instrument run. Within individual samples, Post-NOREVA metabolite levels were divided by the total metabolite load (sum of all metabolite values) to equally weight individual metabolites for comparison across samples.
smiles,measurement,setting,value
"N[C@@H](Cc1c[nH]c2ccccc12)C(=O)O [tryptophan, L-tryptophan]",xanthommatin level,"IFN-γ (50 ng/μL) for 24 hours, then tryptophan 1 mM for 6 hours, QMAP",only tryptophan metabolite to significantly increase
same,3HK level,tryptophan supplementation,not detectable
